PMC8406298, “Discovery of Fungus-Specific Targets and Inhibitors Using Chemical Phenotyping of Pathogenic Spore Germination” (mBio, 2021)

Legend:
[1] = tested on: Cryptococcus yeast (CHY3833 and CHY3836); test: Yeast replication secondary screen (OD600); type: cell-based, Cryptococcus neoformans serotype D (deneoformans); settings: 10 μM, 12 h at 30°C
Experimental: (ii) Yeast replication. CHY3833 and CHY3836 were each grown in YPD liquid overnight at 30°C to saturation and then resuspended in 0.5× YPD at an OD600 of 0.005. Strains were aliquoted into 384-well plates with inhibitors and grown for 12 h at 30°C at […] before OD600 readings were taken. Compounds that caused a >10% decrease in growth were considered yeast growth inhibitors.

[2] = tested on: normal human dermal fibroblasts (NHDF) cells; test: Fibroblast cytotoxicity (CellTiter-Glo); type: cell-based; settings: 10 µM
Experimental: PrimaPure normal human dermal fibroblasts (NHDF) cells (Genlatis PH10605A) were cultured and passaged in fibroblast growth medium (Genlatis PM116500) according to the manufacturer’s protocol. NHDF cells (1 × 10^3 per well) were plated in a 384-well plate in cell culture medium. The cells were incubated with each compound of interest at 10 μM concentration for 72 h at 37°C and 5% CO2. Following treatment, CellTiter-Glo (Promega) reagent was used to assay ATP-dependent luminescence and thus provide a measure of cell viability. […] For cytotoxicity dose-response curves (Fig. 4C and Fig. 5C), compounds were titrated from 80 μM to 0.5 μM in duplicates.

| Compound | Yeast Inhibition: % Inhibition [1] [%] | Cytotoxicity: Relative Cell Viability (% of Negative Control) [2] |
| --- | --- | --- |
| O=c1[nH]sc2ccccc12 [compound 17520] | 101.5 | 3.3 % of Negative Control |
| Oc1ccc2cc(Br)ccc2c1 [compound 27144] | 100.0 | 31.7 % of Negative Control |
| Oc1ccc(-c2ccccc2)cc1Br [compound 27297] | 101.8 | 4.7 % of Negative Control |
| Cc1n[nH]c(C)c1Br [compound 76937] | 22.1 | 59.9 % of Negative Control |
| N#CSC1C=CS(=O)(=O)C1 (centres unmarked) [compound 99741] | 49.2 | 40.8 % of Negative Control |
| COc1ccc(C2=CC(=O)C=CC2=O)cc1 [compound 121637] | 100.9 | 3.0 % of Negative Control |
| Cc1ccc(Nc2cc(Cl)nc(N)n2)cc1Cl [compound 243059] | 98.9 | 46.1 % of Negative Control |
| COc1ccc(CCN2C(=O)C=CC2=O)cc1OC [compound 282938] | 101.4 | 24.9 % of Negative Control |
| N#Cc1nc2c(nc1C#N)-c1ccccc1C2=O [compound 292929] | 100.6 | 5.9 % of Negative Control |
| Cc1ccc(CN2C(=O)C=CC2=O)cc1 [compound 302279] | 101.5 | 3.1 % of Negative Control |
| O=S(=O)(Nc1cccc2ccccc12)c1ccc(Cl)cc1 [compound 310131] | 59.8 | 67.0 % of Negative Control |
| CCOC(=O)c1ccc(NC(=O)CCc2ccc(CC)o2)cc1 [compound 652808] | 28.0 | 113.1 % of Negative Control |
| CC(C)(C)c1ccc(-c2csc(N)n2)cc1 [compound 673711] | 94.3 | 86.3 % of Negative Control |
| Cc1ccc2occ(C=O)c(=O)c2c1 [compound 688709] | 100.0 | 91.6 % of Negative Control |
| CC(C)Cc1nnc(NC(=O)C(Cl)Cl)s1 [compound 697528] | 71.6 | 96.1 % of Negative Control |
| Oc1ccccc1-c1cc2ccccc2[nH]1 [compound 700009] | 82.2 | 96.3 % of Negative Control |
| Cc1ccc(C)c(S(=O)(=O)n2cnc3ccccc32)c1 [compound 700148] | 59.4 | 84.1 % of Negative Control |
| O=C(NC(=S)NCc1ccccc1)c1ccccc1 [compound 700976] | 78.1 | 97.5 % of Negative Control |
| O=C(Nc1nc2c(s1)CCc1ccccc1-2)c1ccco1 [compound 701070] | 1.7 | 92.9 % of Negative Control |
| NC(=O)/C=C/C(=O)Nc1cccc(C(F)(F)F)c1 [compound 707936] | 101.2 | 3.5 % of Negative Control |
| Cc1ccc(C)c(N2C(=O)C=CC2=O)c1 [compound 709153] | 101.9 | 3.3 % of Negative Control |
| CC1CCN(C(=O)COc2ccc(-c3ccccc3)cc2)CC1 [compound 717711] | 28.9 | 90.0 % of Negative Control |
| CN(C)c1ccc(NC(=O)/C=C/c2ccccc2Cl)cc1 [compound 723732] | 27.8 | 79.8 % of Negative Control |
| CC(C)=CC(=O)Nc1ccc(OCc2ccccc2)cc1 [compound 731806] | 64.0 | 91.1 % of Negative Control |
| Cc1nc(NC(=O)CCc2ccccc2)sc1C [compound 733834] | 89.7 | 96.8 % of Negative Control |
| Cc1ccccc1OCCn1cnc2ccccc21 [compound 749608] | 75.5 | 96.0 % of Negative Control |

| Compound | Yeast Inhibition: % Inhibition [1] [%] | Cytotoxicity: Relative Cell Viability (% of Negative Control) [2] |
| --- | --- | --- |
| COc1ccc(Cc2nc3ccccc3[nH]2)cc1 [compound 763894] | 23.2 | 98.0 % of Negative Control |
| COc1ccccc1NS(=O)(=O)c1cc(Cl)ccc1Cl [compound 766532] | 96.0 | 56.4 % of Negative Control |
| Oc1ccc(C2(c3cccc(Cl)c3)CCCC2)cc1 [compound 767639] | 74.0 | 96.2 % of Negative Control |
| O=C(/C=C/c1ccco1)N1CCCc2ccccc21 [compound 768672] | 37.4 | 109.0 % of Negative Control |
| CCc1ccc2nc(N)sc2c1 [compound 773093] | 73.1 | 62.5 % of Negative Control |
| Nc1nc(-c2ccc(Oc3ccccc3)cc2)cs1 [compound 780598] | 81.0 | 97.5 % of Negative Control |
| Cc1ccc(OCCn2c(C)nc3ccccc32)cc1 [compound 790960] | 81.4 | 90.6 % of Negative Control |
| C[n+]1sc(Nc2ccccc2)nc1-c1ccccc1 [compound 803194] | 98.4 | 16.5 % of Negative Control |
| O=Cc1sc(=O)n(Cc2ccccc2)c1Cl [compound 820752] | 101.8 | 115.4 % of Negative Control |
| O=C(Nc1ccc2[nH]c3c(c2c1)CCCC3)c1ccco1 [compound 852322] | 65.7 | 77.3 % of Negative Control |
| COC(=O)c1c(N)sc(C)c1-c1ccc(F)cc1 [compound 874714] | 87.6 | 75.9 % of Negative Control |
| Cc1ccc(C)c(CSc2nc3ccccc3[nH]2)c1 [compound 899259] | 45.3 | 84.5 % of Negative Control |
| c1ccc(CNc2ncnc3scc(-c4cccs4)c23)nc1 [compound 944383] | 53.4 | 92.9 % of Negative Control |
| Clc1ccc2nc(SCCc3ccccc3)[nH]c2c1 [compound 955598] | 98.2 | 34.2 % of Negative Control |
| Cc1cccc2nc(CSC(=S)NCc3cccnc3)cn12 [compound 957599] | 59.9 | 10.0 % of Negative Control |
| C=C(C)Cn1c(Cc2ccc(OC)cc2)nc2ccccc21 [compound 962333] | 53.4 | 73.9 % of Negative Control |
| Nc1nc(COc2ccc3ccccc3c2)cs1 [compound 973573] | 75.7 | 108.1 % of Negative Control |
| O=S(=O)(Nc1ccc(Br)cc1F)c1cccc(Cl)c1 [compound 983861] | 55.6 | 101.6 % of Negative Control |
| Nc1nc(-c2ccccn2)cs1 [compound 1092459] | 100.0 | – |
| CCOC(=O)c1c(-c2ccc(C)o2)csc1NC(=O)c1ccc2c(c1)OCCO2 [compound 1186249] | 44.6 | 75.3 % of Negative Control |
| COC(=O)c1sc(S(=O)(=O)Nc2cccc(C(F)(F)F)c2)c(C(=O)OC)c1C [compound 1190482] | 2.5 | 90.9 % of Negative Control |
| O=C1NC(=S)S/C1=C\c1ccccc1F [compound 1204290] | 71.4 | 92.9 % of Negative Control |
| Cn1c(=O)c(Nc2ccc(O)cc2)c2c3c(cccc31)C(=O)c1ccccc1-2 [compound 1263311] | -2.6 | 86.6 % of Negative Control |
| O=S(=O)(Nc1ccc(Br)cc1F)c1ccc(Cl)c(C(F)(F)F)c1 [compound 1307471] | 59.9 | 98.7 % of Negative Control |
| O=C(NN1C(=O)/C(=C\c2ccco2)SC1=S)c1ccc(OC(F)F)cc1 [compound 1391595] | 65.6 | 93.6 % of Negative Control |
